Experimental findings from patent publication US10202360B2 (CELGENE QUANTICEL RESEARCH, INC., priority 2016, dated 2019) are described below.

The structures appear in SMILES notation.

The target of the experiment is CREBBP (Homo sapiens (Human), UniProt Q92793). Description: In vitro enzyme inhibition assay - CREBBP inhibition (AlphaScreen, biotinylated H4-tetraacetyl peptide). The class given is binding. The note with it: Table 28; AlphaScreen, H4-tetraacetyl peptide. In outline:
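Displacement of 20 nM biotinylated tetraacetyl-H4 peptide from 50 nM E. coli-expressed His-CREBBP, measured by AlphaScreen after bead equilibration for 2 h.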

Sequence of CREBBP (Q92793 1081-1197): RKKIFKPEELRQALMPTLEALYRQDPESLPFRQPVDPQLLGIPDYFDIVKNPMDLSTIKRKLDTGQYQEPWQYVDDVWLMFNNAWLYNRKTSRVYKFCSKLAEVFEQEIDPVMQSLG

The term IC50 denotes the point on the concentration scale where inhibition reaches its midpoint. A high value points to lower potency. For `CCC[C@@H](C)S(=O)(=O)Nc1cc(-c2ccc(=O)n(C)c2)nc(Oc2c(C)cccc2F)n1` [Example 219, (2R)-Pentane-2-sulfonic acid [2-(2-fluoro-6-methyl-phenoxy)-6-(1-methyl-6-oxo-1,6-dihydro-pyridin-3-yl)-pyrimidin-4-yl]-amide], the IC50 is below 500 nM.
Consider `CCC[C@@H](C)S(=O)(=O)Nc1cc(-c2ccc(=O)n(C)c2)nc(Oc2c(F)cccc2Cl)n1` [Example 220, (2R)-Pentane-2-sulfonic acid [2-(2-chloro-6-fluoro-phenoxy)-6-(1-methyl-6-oxo-1,6-dihydro-pyridin-3-yl)-pyrimidin-4-yl]-amide], for which the IC50 was below 500 nM.
The compound `CCC[C@@H](C)S(=O)(=O)Nc1cc(-c2ccc(=O)n(C)c2)nc(Oc2c(C)cccc2Cl)n1` [Example 221, (2R)-Pentane-2-sulfonic acid [2-(2-chloro-6-methyl-phenoxy)-6-(1-methyl-6-oxo-1,6-dihydro-pyridin-3-yl)-pyrimidin-4-yl]-amide] displayed an IC50 below 500 nM.
Compound `CC[C@H](C)S(=O)(=O)Nc1cc(-c2cc(C)c(=O)n(C)c2)nc(Oc2c(C)cccc2Cl)n1` [Example 222, (S)-N-(2-(2-chloro-6-methylphenoxy)-6-(1,5-dimethyl-6-oxo-1,6-dihydropyridin-3-yl)pyrimidin-4-yl)butane-2-sulfonamide] yielded an IC50 below 500 nM.
The compound `CCC[C@H](C)S(=O)(=O)Nc1cc(-c2cc(C)c(=O)n(C)c2)nc(Oc2c(C)cccc2Cl)n1` [Example 223, (S)-N-(2-(2-chloro-6-methylphenoxy)-6-(1,5-dimethyl-6-oxo-1,6-dihydropyridin-3-yl)pyrimidin-4-yl)pentane-2-sulfonamide] returned an IC50 below 500 nM.
In turn, `CC[C@H](C)S(=O)(=O)Nc1cc(-c2ccc(=O)n(C)c2)nc(Oc2c(F)ccc(C)c2Cl)n1` [Example 224, (2S)-Butane-2-sulfonic acid [2-(2-chloro-6-fluoro-3-methyl-phenoxy)-6-(1-methyl-6-oxo-1,6-dihydro-pyridin-3-yl)-pyrimidin-4 yl]-amide] registered an IC50 below 500 nM.
The compound `CC[C@H](C)S(=O)(=O)Nc1cc(-c2ccc(=O)n(C)c2)nc(Oc2c(F)ccc(C)c2F)n1` [Example 225, (S)-N-(2-(2,6-difluoro-3-methylphenoxy)-6-(1-methyl-6-oxo-1,6-dihydropyridin-3-yl)pyrimidin-4-yl)butane-2-sulfonamide] came in with an IC50 below 500 nM.
With `CC[C@H](C)S(=O)(=O)Nc1cc(-c2ccc(=O)n(C)c2)nc(Oc2c(Cl)ccc(C)c2F)n1` [Example 226, (S)-Butane-2-sulfonic acid [2-(6-chloro-2-fluoro-3-methyl-phenoxy)-6-(1-methyl-6-oxo-1,6-dihydro-pyridin-3-yl)-pyrimidin-4-yl]-amide], the IC50 is below 500 nM.
As for `CCC[C@H](C)S(=O)(=O)Nc1cc(-c2ccc(=O)n(C)c2)nc(Oc2c(Cl)ccc(C)c2F)n1` [Example 227, (2S)-Pentane-2-sulfonic acid [2-(6-chloro-2-fluoro-3-methyl-phenoxy)-6-(1-methyl-6-oxo-1,6-dihydro-pyridin-3-yl)-pyrimidin-4-yl]-amide], the IC50 was below 500 nM.
To `CCC[C@H](C)S(=O)(=O)Nc1cc(-c2ccc(=O)n(C)c2)nc(Oc2c(F)ccc(C)c2Cl)n1` [Example 228, (2S)-Pentane-2-sulfonic acid [2-(2-chloro-6-fluoro-3-methyl-phenoxy)-6-(1-methyl-6-oxo-1,6-dihydro-pyridin-3-yl)-pyrimidin-4-yl]-amide] belongs below 500 nM.
The compound `CC[C@H](C)S(=O)(=O)Nc1cc(-c2ccc(=O)n(C)c2)nc(Oc2c(F)cccc2F)n1` [Example 229, (S)-N-(2-(2,6-difluorophenoxy)-6-(1-methyl-6-oxo-1,6-dihydropyridin-3-yl)pyrimidin-4-yl)butane-2-sulfonamide] gave an IC50 below 500 nM.
`CC[C@@H](C)S(=O)(=O)Nc1cc(-c2ccc(=O)n(C)c2)nc(Oc2c(F)cccc2F)n1` [Example 230, (R)-N-(2-(2,6-difluorophenoxy)-6-(1-methyl-6-oxo-1,6-dihydropyridin-3-yl)pyrimidin-4-yl)butane-2-sulfonamide] displayed an IC50 below 500 nM.
`Cn1cc(-c2cc(NS(=O)(=O)CCC(F)(F)F)nc(Oc3c(F)cccc3Cl)n2)ccc1=O` [Example 231, 3,3,3-Trifluoro-propane-1-sulfonic acid [2-(2-chloro-6-fluoro-phenoxy)-6-(1-methyl-6-oxo-1,6-dihydro-pyridin-3-yl)-pyrimidin-4-yl]-amide] gave an IC50 below 500 nM.
In the case of `Cn1cc(-c2cc(NS(=O)(=O)CCCC(F)(F)F)nc(Oc3c(F)cccc3Cl)n2)ccc1=O` [Example 232, 4,4,4-Trifluoro-butane-1-sulfonic acid [2-(2-chloro-6-fluoro-phenoxy)-6-(1-methyl-6-oxo-1,6-dihydro-pyridin-3-yl)-pyrimidin-4-yl]-amide] it was below 500 nM.
In the case of `CCCCS(=O)(=O)Nc1cc(-c2ccc(=O)n(C)c2)nc(Oc2c(F)cccc2OC)n1` [Example 233, Butane-1-sulfonic acid [2-(2-fluoro-6-methoxy-phenoxy)-6-(1-methyl-6-oxo-1,6-dihydro-pyridin-3-yl)-pyrimidin-4-yl]-amide] it was below 500 nM; in that of `COc1cccc(F)c1Oc1nc(NS(=O)(=O)C(C)C)cc(-c2ccc(=O)n(C)c2)n1` [Example 234, Propane-2-sulfonic acid [2-(2-fluoro-6-methoxy-phenoxy)-6-(1-methyl-6-oxo-1,6-dihydro-pyridin-3-yl)-pyrimidin-4-yl]-amide], below 500 nM; in that of `CCCS(=O)(=O)Nc1cc(-c2ccc(=O)n(C)c2)nc(Oc2c(F)cccc2OC)n1` [Example 235, Propane-1-sulfonic acid [2-(2-fluoro-6-methoxy-phenoxy)-6-(1-methyl-6-oxo-1,6-dihydro-pyridin-3-yl)-pyrimidin-4-yl]-amide], below 500 nM.
In the case of `CCS(=O)(=O)Nc1cc(-c2ccc(=O)n(C)c2)nc(OC(C)C)n1` [Example 236, Ethanesulfonic acid [2-isopropoxy-6-(1-methyl-6-oxo-1,6-dihydro-pyridin-3-yl)-pyrimidin-4-yl]-amide] it was below 500 nM.
As for `CCCS(=O)(=O)Nc1cc(-c2ccc(=O)n(C)c2)nc(OC(C)C)n1` [Example 237, Propane-1-sulfonic acid [2-isopropoxy-6-(1-methyl-6-oxo-1,6-dihydro-pyridin-3-yl)-pyrimidin-4-yl]-amide], the IC50 was below 500 nM.
In the case of `CCS(=O)(=O)Nc1cc(-c2ccc(=O)n(C)c2)nc(Oc2c(F)cccc2C2CC2)n1` [Example 238, Ethanesulfonic acid [2-(2-cyclopropyl-6-fluoro-phenoxy)-6-(1-methyl-6-oxo-1,6-dihydro-pyridin-3-yl)-pyrimidin-4-yl]-amide] it was below 500 nM.
Compound `CCCS(=O)(=O)Nc1cc(-c2ccc(=O)n(C)c2)nc(Oc2c(F)cccc2C2CC2)n1` [Example 239, Propane-1-sulfonic acid [2-(2-cyclopropyl-6-fluoro-phenoxy)-6-(1-methyl-6-oxo-1,6-dihydro-pyridin-3-yl)-pyrimidin-4-yl]-amide] had an IC50 below 500 nM.
In the case of `CCCCS(=O)(=O)Nc1cc(-c2ccc(=O)n(C)c2)nc(Oc2c(F)cccc2C2CC2)n1` [Example 240, Butane-1-sulfonic acid [2-(2-cyclopropyl-6-fluoro-phenoxy)-6-(1-methyl-6-oxo-1,6-dihydro-pyridin-3-yl)-pyrimidin-4-yl]-amide] it was below 500 nM.
In the case of `CCCC(C)S(=O)(=O)Nc1cc(-c2ccc(=O)n(C)c2)nc(Oc2c(C)cccc2F)n1` (stereo not drawn) [Example 241, Pentane-2-sulfonic acid [2-(2-fluoro-6-methyl-phenoxy)-6-(1-methyl-6-oxo-1,6-dihydro-pyridin-3-yl)-pyrimidin-4-yl]-amide] it was below 500 nM; in that of `CCCC(C)S(=O)(=O)Nc1cc(-c2ccc(=O)n(C)c2)nc(Oc2c(F)cccc2Cl)n1` (stereo not drawn) [Example 242, Pentane-2-sulfonic acid [2-(2-chloro-6-fluoro-phenoxy)-6-(1-methyl-6-oxo-1,6-dihydro-pyridin-3-yl)-pyrimidin-4-yl]-amide], below 500 nM; in that of `CCCC(C)S(=O)(=O)Nc1cc(-c2ccc(=O)n(C)c2)nc(Oc2c(C)cccc2Cl)n1` (stereo not drawn) [Example 243, Pentane-2-sulfonic acid [2-(2-chloro-6-methyl-pphenoxy)-6-(1-methyl-6-oxo-1,6-dihydro-pyridin-3-yl)-pyrimidin-4-yl]-amide], below 500 nM.
In the case of `CCCCS(=O)(=O)Nc1cc(-c2ccc(=O)n(C)c2)nc(OC2CCCCC2)n1` [Example 244, Butane-1-sulfonic acid [2-cyclohexyloxy-6-(1-methyl-6-oxo-1,6-dihydro-pyridin-3-yl)-pyrimidin-4-yl]-amide] it was below 500 nM; in that of `CCCS(=O)(=O)Nc1cc(-c2ccc(=O)n(C)c2)nc(OC2CCCCC2)n1` [Example 245, Propane-1-sulfonic acid [2-cylcohexyloxy-6-(1-methyl-6-oxo-1,6-dihydro-pyridin-3-yl)-pyrimidin-4-yl]-amide], below 500 nM.
For the compound `CCS(=O)(=O)Nc1cc(-c2ccc(=O)n(C)c2)nc(OC2CCCCC2)n1` [Example 246, Ethanesulfonic acid [2-cylcohexyloxy-6-(1-methyl-6-oxo-1,6-dihydro-pyridin-3-yl)-pyrimidin-4-yl]-amide], the IC50 is below 500 nM.
Take `CC(C)S(=O)(=O)Nc1cc(-c2ccc(=O)n(C)c2)nc(OC2CCCCC2)n1` [Example 247, Propane-2-sulfonic acid [2-cylcohexyloxy-6-(1-methyl-6-oxo-1,6-dihydro-pyridin-3-yl)-pyrimidin-4-yl]-amide]: the IC50 is below 500 nM.
As to `Cc1cccc(F)c1Oc1nc(NS(=O)(=O)CCC(C)C)cc(-c2ccc(=O)n(C)c2)n1` [Example 248, 3-Methyl-butane-1-sulfonic acid [2-(2-fluoro-6-methyl-phenoxy)-6-(1-methyl-6-oxo-1,6-dihydro-pyridin-3-yl)-pyrimidin-4-yl]-amide], the IC50 is below 500 nM.
